Data taken from ChEMBL document CHEMBL1131688, “Solution-phase and solid-phase synthesis of novel transition state inhibitors of coagulation enzymes incorporating a piperidinyl moiety” (Bioorg Med Chem Lett, 1999).

Experiments:
[1] = target: T1, Coagulation factor X (Homo sapiens, UniProt P00742); test: Inhibitory activity against Coagulation factor X with respect to Argatroban
[2] = target: Prothrombin (Homo sapiens, UniProt P00734); test: Inhibitory activity against thrombin with respect to Argatroban
[3] = target: T1, Coagulation factor X; test: Inhibitory activity against Coagulation factor X

T1 sequence (P00742 41-179 limits assumed): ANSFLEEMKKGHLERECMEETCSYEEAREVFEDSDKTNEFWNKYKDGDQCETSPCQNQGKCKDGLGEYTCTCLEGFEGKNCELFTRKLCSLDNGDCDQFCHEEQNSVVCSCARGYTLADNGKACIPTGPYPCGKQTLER
T1 sequence (P00742 235-488 limits assumed): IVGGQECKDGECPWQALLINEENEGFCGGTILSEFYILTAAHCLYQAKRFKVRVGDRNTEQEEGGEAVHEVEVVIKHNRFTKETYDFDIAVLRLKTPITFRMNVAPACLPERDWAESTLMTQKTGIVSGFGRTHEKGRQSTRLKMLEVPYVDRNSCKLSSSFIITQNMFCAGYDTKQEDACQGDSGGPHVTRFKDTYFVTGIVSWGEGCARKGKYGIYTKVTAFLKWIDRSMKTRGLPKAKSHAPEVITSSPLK

SMILES: O=C(CN1CCCCC(NS(=O)(=O)Cc2ccccc2)C1=O)N[C@@H](CC1CCNCC1)C(=O)C(=O)NCc1ccccc1 (stereo partly specified)
- IC50 [1]: 5200 nM
- IC50 [2]: 1400 nM

SMILES: O=C(NCc1ccccc1)C(=O)[C@H](CC1CCNCC1)NC(=O)[C@H]1CCCN1C(=O)[C@@H]1NCC[C@H]2CCCC[C@H]21
- IC50 [1]: 2900 nM
- IC50 [2]: 48 nM

SMILES: CC1CNc2c(cccc2S(=O)(=O)N[C@@H](CCCNC(=N)N)C(=O)N2CCC(C)C[C@@H]2C(=O)O)C1 (single isomer, unassigned) [ARGATROBAN]
- IC50 [3]: 134000 nM

SMILES: CCS(=O)(=O)N[C@H](CC1CCCCC1)C(=O)N1CCC[C@H]1C(=O)NC(CC1CCNCC1)C(=O)c1nccs1 (stereo partly specified)
- IC50 [1]: 4100 nM
- IC50 [2]: 160 nM

SMILES: O=C(O)CN[C@H](CC1CCCCC1)C(=O)NCC(=O)NC(CC1CCNCC1)C(=O)c1nccs1 (stereo partly specified)
- IC50 [1]: 1100 nM
- IC50 [2]: 19400 nM

SMILES: CCS(=O)(=O)N[C@H](CC1CCCCC1)C(=O)N1CCC[C@H]1C(=O)NC(CC1CCNCC1)C(=O)C(=O)O (stereo partly specified)
- IC50 [1]: 16000 nM
- IC50 [2]: 220 nM

SMILES: CN(CC(=O)NC(CC1CCNCC1)C(=O)c1nccs1)C(=O)[C@@H](CC1CCCCC1)NCC(=O)O (stereo partly specified)
- IC50 [1]: 430 nM
- IC50 [2]: 4800 nM

SMILES: O=C(NCc1ccccc1)C(=O)[C@H](CC1CCNCC1)NC(=O)[C@H]1CCCN1C(=O)CC(c1ccccc1)c1ccccc1
- IC50 [1]: 54000 nM
- IC50 [2]: 260 nM

SMILES: O=C(Cn1cccc(NS(=O)(=O)Cc2ccccc2)c1=O)N[C@@H](CC1CCNCC1)C(=O)C(=O)NCc1ccccc1
- IC50 [1]: 3600 nM
- IC50 [2]: 590 nM

SMILES: CCS(=O)(=O)N[C@H](CC1CCCCC1)C(=O)N1CCC[C@H]1C(=O)N[C@@H](CC1CCNCC1)C(=O)c1nccs1
- IC50 [1]: 2500 nM
- IC50 [2]: 120 nM

SMILES: O=C(O)CN[C@H](CC1CCCCC1)C(=O)N[C@@H](Cc1ccccc1)C(=O)NC(CC1CCNCC1)C(=O)c1nccs1 (stereo partly specified)
- IC50 [1]: 7800 nM
- IC50 [2]: 3100 nM
